Measurements from ChEMBL document CHEMBL3272053, “(exo, exo)-2-Aryltropane-3-carboxylic esters, hypoglycemic agents with accompanying analgesic activity” (J Med Chem, 1978).
Active and inactive are the calls of the source. The calls are words filed in the database; no cut-off is given here.

Key:
[1] = tested on: Rattus norvegicus; assay: Narcotic analgesic activity in fasted Sprague-Dawley rat at 240 mg/kg, po measured at 15 mins by D'Amour-Smith tail-flick test relative to control; type: functional
[2] = tested on: Rattus norvegicus; assay: Narcotic analgesic activity in fasted Sprague-Dawley rat at 240 mg/kg, po measured at 60 mins by D'Amour-Smith tail-flick test relative to control; type: functional
[3] = tested on: Mus musculus; assay: Analgesic activity in Swiss-Webster mouse assessed as reduction of acetylcholine-induced writhing at 75 mg/kg, sc relative to control; type: functional; set-up: scale not given: the % may be the effect or the level left; conditions: route subcutaneous
[4] = tested on: Rattus norvegicus; assay: Hypoglycemic activity in Sprague-Dawley rat assessed as reduction of blood glucose level at 78 mg/kg, po by glucagon-impaired glucose disposal test relative to control; type: functional; set-up: scale not given: the % may be the effect or the level left
[5] = tested on: Rattus norvegicus; assay: Narcotic analgesic activity in fasted Sprague-Dawley rat at 120 mg/kg, po measured at 60 mins by D'Amour-Smith tail-flick test relative to control; type: functional
[6] = tested on: Rattus norvegicus; assay: Toxicity in Sprague-Dawley rat assessed as tremor at 240 mg/kg, sc; type: organism-based; set-up: dose 240 mg/kg, route subcutaneous; conditions: in vivo
[7] = tested on: Rattus norvegicus; assay: Hypoglycemic activity in Sprague-Dawley rat assessed as reduction of blood glucose level at 88 mg/kg, po by glucagon-impaired glucose disposal test relative to control; type: functional; set-up: scale not given: the % may be the effect or the level left
[8] = tested on: Rattus norvegicus; assay: Narcotic analgesic activity in fasted Sprague-Dawley rat at 120 mg/kg,sc measured at 30 mins by D'Amour-Smith tail-flick test in presence of opioid antagonist nalorphine; type: functional, organism-based; set-up: dose 120 mg/kg
[9] = tested on: Rattus norvegicus; assay: Narcotic analgesic activity in fed Sprague-Dawley rat at 240 mg/kg, sc measured at 30 mins by D'Amour-Smith tail-flick test; type: functional; conditions: route subcutaneous
[10] = tested on: Rattus norvegicus; assay: Hypoglycemic activity in Sprague-Dawley rat assessed as reduction of blood glucose level at 100 mg/kg, po; type: functional, organism-based; set-up: dose 100 mg/kg
[11] = tested on: Rattus norvegicus; assay: Hypoglycemic activity in Sprague-Dawley rat assessed as reduction of blood glucose level at 88 mg/kg, po by glucagon-impaired glucose disposal test in presence of opioid antagonist nalorphine; type: functional, organism-based; set-up: dose 88 mg/kg
[12] = tested on: Rattus norvegicus; assay: Hypoglycemic activity in Sprague-Dawley rat assessed as reduction of blood glucose level at 88 mg/kg, po by glucagon-impaired glucose disposal test in presence of microsomal enzyme inhibitor SKF 525-A; type: functional, organism-based; set-up: dose 88 mg/kg
[13] = tested on: Rattus norvegicus; assay: Toxicity in Sprague-Dawley rat assessed as rigidity at 240 mg/kg, sc; type: organism-based; set-up: dose 240 mg/kg, route subcutaneous; conditions: in vivo
[14] = species: Rattus norvegicus; assay: Narcotic analgesic activity in Sprague-Dawley rat at 15 mins by D'Amour-Smith tail-flick test in presence of microsomal enzyme inhibitor SKF 525-A; type: functional, organism-based
[15] = tested on: Rattus norvegicus; assay: Narcotic analgesic activity in fasted Sprague-Dawley rat at 120 mg/kg, po measured at 15 mins by D'Amour-Smith tail-flick test relative to control; type: functional
[16] = tested on: Rattus norvegicus; assay: Toxicity in Sprague-Dawley rat assessed as tremor at 120 mg/kg, po; type: organism-based; set-up: dose 120 mg/kg, route oral; conditions: in vivo
[17] = tested on: Rattus norvegicus; assay: Hypoglycemic activity in Sprague-Dawley rat assessed as reduction of blood glucose level at 87 mg/kg, po by glucagon-impaired glucose disposal test in presence of microsomal enzyme inhibitor SKF 525-A; type: functional, organism-based; set-up: dose 87 mg/kg
[18] = tested on: Rattus norvegicus; assay: Hypoglycemic activity in Sprague-Dawley rat assessed as reduction of blood glucose level at 87 mg/kg, po by glucagon-impaired glucose disposal test relative to control; type: functional; set-up: scale not given: the % may be the effect or the level left
[19] = tested on: Mus musculus; assay: Analgesic activity in sc dosed Swiss-Webster mouse assessed as reduction of acetylcholine-induced writhing; type: functional; conditions: Mus musculus, Swiss-Webster, sc; for ED50: read-out: ED50
[20] = tested on: Rattus norvegicus; assay: Toxicity in Sprague-Dawley rat assessed as hyperexcitability at 120 mg/kg, po; type: organism-based; set-up: dose 120 mg/kg, route oral; conditions: in vivo
[21] = tested on: Rattus norvegicus; assay: Hypoglycemic activity in glucose loaded Sprague-Dawley rat assessed as reduction of blood glucose level at 264 mg/kg, po relative to control; type: functional; set-up: scale not given: the % may be the effect or the level left
[22] = tested on: Mus musculus; assay: Analgesic activity in Swiss-Webster mouse assessed as reduction of acetylcholine-induced writhing at 50 mg/kg, po relative to control; type: functional; set-up: scale not given: the % may be the effect or the level left
[23] = tested on: Rattus norvegicus; assay: Hypoglycemic activity in glucose loaded Sprague-Dawley rat assessed as reduction of blood glucose level at 64 mg/kg, po relative to control; type: functional; set-up: scale not given: the % may be the effect or the level left
[24] = tested on: Rattus norvegicus; assay: Hypoglycemic activity in glucose loaded Sprague-Dawley rat assessed as reduction of blood glucose level at 64 mg/kg, po in presence of microsomal enzyme inhibitor SKF 525-A; type: functional, organism-based; set-up: dose 64 mg/kg
[25] = tested on: Rattus norvegicus; assay: Toxicity in Sprague-Dawley rat assessed as very rigid structure at 240 mg/kg, po; type: organism-based; set-up: dose 240 mg/kg, route oral; conditions: in vivo
[26] = tested on: Mus musculus; assay: Analgesic activity in po dosed Swiss-Webster mouse assessed as reduction of acetylcholine-induced writhing; type: functional
[27] = tested on: Rattus norvegicus; assay: Toxicity in Sprague-Dawley rat assessed as stiff tail at 480 mg/kg, po; type: organism-based; set-up: dose 480 mg/kg, route oral; conditions: in vivo
[28] = tested on: Rattus norvegicus; assay: Toxicity in Sprague-Dawley rat assessed as jumpy behavior at 480 mg/kg, po; type: organism-based; set-up: dose 480 mg/kg, route oral; conditions: in vivo
[29] = tested on: Rattus norvegicus; assay: Hypoglycemic activity in Sprague-Dawley rat assessed as reduction of blood glucose level at 100 mg/kg, po by glucagon-impaired glucose disposal test relative to control; type: functional; set-up: scale not given: the % may be the effect or the level left
[30] = tested on: Rattus norvegicus; assay: Toxicity in rat assessed as slight rigidity at 480 mg/kg, po; type: organism-based; set-up: dose 480 mg/kg, route oral; conditions: in vivo
[31] = tested on: Rattus norvegicus; assay: Hypoglycemic activity in fasted Sprague-Dawley rat assessed as reduction of blood glucose level at 78 mg/kg, po relative to control; type: functional; set-up: scale not given: the % may be the effect or the level left
[32] = tested on: Rattus norvegicus; assay: Hypoglycemic activity in fasted Sprague-Dawley rat assessed as reduction of blood glucose level at 78 mg/kg, iv relative to control; type: functional, organism-based; set-up: dose 78 mg/kg
[33] = species: Rattus norvegicus; assay: Narcotic analgesic activity in Sprague-Dawley rat measured at 15 mins by D'Amour-Smith tail-flick test relative to control; type: functional
[34] = tested on: Rattus norvegicus; assay: Hypoglycemic activity in glucose loaded Sprague-Dawley rat assessed as reduction of blood glucose level at 100 mg/kg, po relative to control; type: functional; set-up: scale not given: the % may be the effect or the level left
[35] = tested on: Mus musculus; assay: Toxicity in Swiss-Webster mouse assessed as stimulation of straub tail at 2.5 mg/kg, sc after 15 to 25 mins; type: organism-based; set-up: dose 2.5 mg/kg, route subcutaneous; conditions: in vivo
[36] = tested on: Rattus norvegicus; assay: Hypoglycemic activity in glucose loaded Sprague-Dawley rat assessed as reduction of blood glucose level at 88 mg/kg, po relative to control; type: functional; set-up: scale not given: the % may be the effect or the level left
[37] = tested on: Rattus norvegicus; assay: Hypoglycemic activity in glucose loaded Sprague-Dawley rat assessed as reduction of blood glucose level at 84 mg/kg, po relative to control; type: functional; set-up: scale not given: the % may be the effect or the level left
[38] = tested on: Rattus norvegicus; assay: Toxicity in Sprague-Dawley rat assessed as convulsion at 480 mg/kg, po; type: organism-based; set-up: dose 480 mg/kg, route oral; conditions: in vivo
[39] = tested on: Rattus norvegicus; assay: Narcotic analgesic activity in fasted Sprague-Dawley rat at 480 mg/kg, po measured at 60 mins by D'Amour-Smith tail-flick test relative to control; type: functional
[40] = tested on: Rattus norvegicus; assay: Analgesic activity in po dosed rat assessed as reduction of intraarterial bradykinin-induced pain response; type: functional
[41] = tested on: Rattus norvegicus; assay: Toxicity in Sprague-Dawley rat assessed as tremor at 480 mg/kg, po; type: organism-based; set-up: dose 480 mg/kg, route oral; conditions: in vivo
[42] = tested on: Mus musculus; assay: Analgesic activity in Swiss-Webster mouse assessed as reduction of acetylcholine-induced writhing at 25 mg/kg, sc relative to control; type: functional; set-up: scale not given: the % may be the effect or the level left; conditions: route subcutaneous
[43] = tested on: Rattus norvegicus; assay: Hypoglycemic activity in fasted Sprague-Dawley rat assessed as reduction of blood glucose level at 89 mg/kg, po relative to control; type: functional; set-up: scale not given: the % may be the effect or the level left
[44] = tested on: Rattus norvegicus; assay: Toxicity in Sprague-Dawley rat assessed as convulsion at 240 mg/kg, po; type: organism-based; set-up: dose 240 mg/kg, route oral; conditions: in vivo
[45] = tested on: Rattus norvegicus; assay: Hypoglycemic activity in Sprague-Dawley rat assessed as reduction of blood glucose level at 300 mg/kg, po by glucagon-impaired glucose disposal test relative to control; type: functional; set-up: scale not given: the % may be the effect or the level left
[46] = tested on: Rattus norvegicus; assay: Toxicity in Sprague-Dawley rat assessed as hyperexcitability at 240 mg/kg, po; type: organism-based; set-up: dose 240 mg/kg, route oral; conditions: in vivo
[47] = tested on: Rattus norvegicus; assay: Analgesic activity in rat assessed as protection against intraarterial bradykinin-induced pain response at 50 mg/kg, sc relative to control; type: functional; conditions: route subcutaneous
[48] = tested on: Rattus norvegicus; assay: Toxicity in Sprague-Dawley rat assessed as convulsion at 240 mg/kg, sc; type: organism-based; set-up: dose 240 mg/kg, route subcutaneous; conditions: in vivo
[49] = tested on: Rattus norvegicus; assay: Toxicity in Sprague-Dawley rat assessed as hyperexcitability at 480 mg/kg, po; type: organism-based; set-up: dose 480 mg/kg, route oral; conditions: in vivo

CN1[C@@H]2CC[C@@H]1[C@@H](c1ccccc1)[C@@H](C(=O)O)C2
Activity [1]: <20%
Activity [2]: <20%
Activity [3]: 7%
Activity [4]: <20%

COC(=O)[C@@H]1C[C@@H]2CC[C@@H]([C@@H]1c1cccs1)N2C.Cl
Activity [5]: 26%
Activity [6]: Toxic
Activity [7]: <20%
Activity [8]: inactive
Activity [9]: 62%
Activity [10]: inactive
Activity [11]: Active
Activity [12]: inactive
Activity [13]: Toxic
Activity [14]: inactive

COC(=O)[C@H]1C[C@H]2CC[C@@H](N2)[C@H]1c1ccccc1.Cl
Activity [15]: 69%
Activity [16]: Toxic
Activity [17]: Active
Activity [18]: 31%
ED50 [19]: 4 mg/kg
Activity [20]: Toxic

COC(=O)CN1[C@@H]2CC[C@@H]1[C@@H](c1cccs1)[C@@H](C(=O)OC)C2.Cl
Activity [1]: 100%
Activity [7]: inactive
Activity [21]: 70%
Activity [22]: 33%

COC(=O)[C@H]1C[C@H]2CC[C@H]([C@H]1c1cccs1)N2CCC#N.Cc1ccc(S(=O)(=O)O)cc1
Activity [1]: 100%
Activity [23]: 64%
Activity [24]: Active
Activity [25]: Toxic
ED50 [26]: 60 mg/kg

CCCCCCCN1[C@@H]2CC[C@@H]1[C@@H](c1cccs1)[C@@H](C(=O)OC)C2
Activity [2]: 70%
Activity [3]: 27%
Activity [27]: Toxic
Activity [28]: Toxic
Activity [29]: 40%
Activity [30]: Toxic

Cl.O=C(O)[C@H]1C[C@H]2CC[C@@H](N2)[C@H]1c1cccs1
Activity [31]: <20%
Activity [32]: inactive

CCC(CC)CN1[C@@H]2CC[C@@H]1[C@@H](c1cccs1)[C@@H](C(=O)OC)C2
Activity [33]: 24%
Activity [1]: 72%
Activity [3]: 7%
Activity [34]: 69%

CCOC(=O)[C@H]1C[C@H]2CC[C@@H](N2)[C@H]1c1cccs1.Cl
Activity [35]: Toxic
Activity [15]: 85%
Activity [36]: 66%
ED50 [19]: 2.8 mg/kg

COC(=O)[C@H]1C[C@H]2CC[C@H]([C@H]1C)N2C.Cl
Activity [37]: <20%

COC(=O)[C@H]1C[C@H]2CC[C@H]([C@H]1c1ccc[nH]1)N2C
Activity [2]: 19%
Activity [38]: Toxic
Activity [39]: 86%
Activity [29]: 30%
ED50 [19]: 18 mg/kg
ED50 [40]: 8.5 mg/kg
Activity [41]: Toxic

COC(=O)[C@H]1C[C@H]2CC[C@H]([C@H]1c1cccs1)N2C(C)C.Cl
Activity [42]: 13%
Activity [1]: 87%
Activity [43]: 40%
Activity [44]: Toxic

COC(=O)[C@H]1C[C@H]2CC[C@H]([C@H]1c1ccsc1)N2C
Activity [2]: 40%
Activity [45]: 42%
Activity [46]: Toxic
ED40 [19]: 12 mg/kg

CC(=O)[C@H]1C[C@H]2CC[C@H]([C@H]1c1cccs1)N2C.Cl
Activity [6]: Toxic
Activity [47]: 80%
Activity [9]: 55%
Activity [18]: 26%
ED50 [19]: 12 mg/kg
Activity [48]: Toxic

COC(=O)[C@H]1C[C@H]2CC[C@H]([C@H]1c1ccccc1)N2Cc1ccccc1
Activity [49]: Toxic
Activity [39]: 60%
Activity [29]: 42%
ED50 [26]: 21 mg/kg
Activity [41]: Toxic
